For data set [1] the following is noted: Crystal; DSC.
A short description of data set [2]: Molar enthalpy of transition or fusion. To be noted: Crystal; DSC.

Numbers after ± are expanded uncertainties.

`CC1(C)CCC2=C(O1)c1ccccc1C(=O)C2=O` [3,4-dihydro-2,2-dimethyl-2H-naphtho[1,2-b]pyran-5,6-dione]: the Triple point temperature in data set [1] amounted to 428.99 ± 1.9 K. For the same molecule, the “Molar enthalpy of transition or fusion” value in data set [2] was 5.86 ± 0.263 kcal/mol.

(Values after the NIST ThermoML archive (doi:10.1016/j.fluid.2018.05.005).)
